Data: the supplement of paper PMC10307832

Legend:
Assay in all cases: relative viability (nuclei count vs DMSO), 5 days (fraction); higher = more cells survive
[1] = compound: Cc1cnc(Nc2ccc(OCCN3CCCC3)cc2)nc1Nc1cccc(S(=O)(=O)NC(C)(C)C)c1 [Fedratinib] + CC(=O)c1c(C)c2cnc(Nc3ccc(N4CCNCC4)cn3)nc2n(C2CCCC2)c1=O [Palbociclib] (partner 0.5 µM)
Outline: (§1)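 Lung cancer cell lines were pin-tool dosed in 1536-well plates on the day after seeding, with either a lone drug or a fixed anchor-drug dose plus five library-drug doses (not always all listed) in √10 steps. Nuclei were counted on 4× images after 5 days. Relative viability is the ratio of treated-well to vehicle-well nuclei counts, with each value a median of duplicate plates.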

[2] = compound: Cc1cnc(Nc2ccc(OCCN3CCCC3)cc2)nc1Nc1cccc(S(=O)(=O)NC(C)(C)C)c1 [Fedratinib] + Cc1nc(Nc2ncc(C(=O)Nc3c(C)cccc3Cl)s2)cc(N2CCN(CCO)CC2)n1 [Dasatinib] (partner 0.075 µM)
Outline: as §1

[3] = compound: COC1=CC=C(C=C1)COC2=C(C=C(C=C2)CC3=CN=C(N=C3N)N)OC [GW-2580] + C[C@]1(O)C[C@@H](c2nc(-c3ccc4ccc(-c5ccccc5)nc4c3)c3c(N)nccn32)C1 [Linsitinib] (partner 1 µM)
Outline: as §1

[4] = compound: COC1=CC=C(C=C1)COC2=C(C=C(C=C2)CC3=CN=C(N=C3N)N)OC [GW-2580] + CC(=O)c1c(C)c2cnc(Nc3ccc(N4CCNCC4)cn3)nc2n(C2CCCC2)c1=O [Palbociclib] (partner 0.5 µM)
Outline: as §1

[5] = compound: COC1=CC=C(C=C1)COC2=C(C=C(C=C2)CC3=CN=C(N=C3N)N)OC [GW-2580] + CC(C)C[C@H](NC(=O)[C@H](Cc1ccccc1)NC(=O)c1cnccn1)B(O)O [Bortezomib] (partner 0.002 µM)
Outline: as §1

Cell Line	relative viability ([1]; first compound 0.1 µM)	relative viability ([1]; first compound 0.3162 µM)	relative viability ([1]; first compound 1 µM)	relative viability ([2]; first compound 0.1 µM)	relative viability ([2]; first compound 0.3162 µM)	relative viability ([2]; first compound 1 µM)	relative viability ([3]; first compound 0.08 µM)	relative viability ([3]; first compound 0.8 µM)	relative viability ([3]; first compound 2.53 µM)	relative viability ([3]; first compound 8 µM)	relative viability ([4]; first compound 0.08 µM)	relative viability ([4]; first compound 0.8 µM)	relative viability ([4]; first compound 2.53 µM)	relative viability ([4]; first compound 8 µM)	relative viability ([5]; first compound 0.08 µM)	relative viability ([5]; first compound 0.8 µM)	relative viability ([5]; first compound 2.53 µM)	relative viability ([5]; first compound 8 µM)
NCI-H1755	0.438	0.462	0.413	0.351	0.404	0.39	1.05	1.17	0.955	0.761	0.458	0.422	0.455	0.41	1.03	1.1	0.883	0.852
NCI-H1792	0.684	0.622	0.611	0.619	0.765	0.81	0.684	0.569	0.263	0.592	0.96	0.997		0.678	0.926	1.07	0.734	1.1
NCI-H1915	0.505	0.498	0.422	0.258	0.307	0.179	1.2	1.13	1.1	1.11	0.608	0.735	0.597	0.492	1	1.11	0.959	1.05
NCI-H1975	0.644	0.304	0.413	0.329	0.362	0.285	1.19	0.931	0.89	0.875	0.738	0.944	0.524	0.586	0.373	0.368	0.317	0.366
NCI-H1993	0.654	0.63	0.906	0.591	0.545	0.62	0.757	0.735		0.714	0.744	0.748	0.563	0.647	1.27	1.33		0.995
NCI-H2009	0.185	0.254	0.161	0.232	0.241	0.185	1.14	1.21	1.18	1.06	0.193	0.179	0.212	0.248	1.02	0.955	0.931	0.844
NCI-H2023	0.391	0.356	0.248	0.614	0.476	0.394	0.643	0.864	0.654	0.67	0.398	0.477	0.368	0.31	1.01	1.14	0.733	0.904
NCI-H2085	0.447	0.483	0.423	0.259	0.26	0.246	0.818	1.13	0.978	0.879	0.507	0.467	0.462	0.438	1.11	1.12	1.19	1.03
NCI-H2087	0.23	0.24	0.258	0.803	0.536	0.648	1.08	0.935	0.924	0.818	0.196	0.274	0.216	0.252	0.966	1.16	0.79	0.872
NCI-H2126	0.319	0.339	0.369	0.577	0.655	0.426	0.739	0.731	0.653	0.743	0.352	0.365	0.335	0.356	1.14	1.24	1.03	1.14
NCI-H2228	0.648	0.53	0.523	0.552	0.448	0.349	0.88	0.664	0.79	0.633	0.793	1.03	0.822	0.843	1.03	1.1	0.958	0.986
NCI-H2347	0.37	0.426	0.391	0.311	0.275	0.435	0.996	0.864	0.954	0.884	0.382	0.453	0.451	0.426	1.01	1.23	0.842	1.26
NCI-H2405	0.486	0.536	0.463	0.191	0.244	0.159	0.979	0.85	0.886	0.861	0.512	0.546	0.463	0.49	1.02	1.03	0.807	0.951
NCI-H3122	0.199	0.184	0.159	0.747	0.738	0.816	0.993	1.13	1.16	1.05	0.207	0.199	0.189	0.195	1.04	0.939	1.1	1.11
PC-3 [JPC-3]	0.481	0.523	0.542	1.11	0.905	0.966	0.96	0.995	0.966	0.967	0.546	0.567	0.515	0.516	0.886	1.01	0.846	0.792
PC-14	0.592	0.58	0.402	0.167	0.272	0.143	1.12	0.987	0.934	1.03	0.653	0.614	0.607	0.473	0.934	1.09	0.779	0.95
RERF-LC-KJ	1.01	1.05	1.02	0.683	0.768	0.655	0.946	0.939	0.816	0.815	1.13	1.24	0.988	1.07	1.22	1.06	1.04	1.08
